Measurements reported in US4755594A, “N^6 -substituted adenosines” (Warner-Lambert Company, priority 1986, dated 1988).

Experiments:
[1] = Conditioned shock avoidance (SIDR), antipsychotic; type: in vivo, male Long-Evans rats; conditions: Rattus norvegicus; read-out: ED50 in the SIDR protocol
Method: (§1) Representative compounds of the invention (identified in the Examples) were also tested for antipsychotic activity according to the following protocol (SIDR or SIDSM). The noted compound has the indicated ED50 values (mg/kg) and is considered active as an antipsychotic agent in the test procedure.
(§2) Mature male Long-Evans rats (SIDR) or squirrel-monkeys (SIDSM) are conditioned to push a lever in order to avoid a painful electric footshock. If the animals fails to push the lever, he receives a shock every ten seconds until the lever is pushed. Shocks can be terminated by pushing the lever. Thereafter, as long as the lever is pushed at least once every 20 seconds, there will be no shock.
(§3) Each animal acts as its own control; one weekly session is used to establish baseline behavior and another session later in the week is used as a drug session. Once patterns of avoidance are established, the effects of standard and unknown compounds are studied.

[2] = Conditioned shock avoidance (SIDSM), antipsychotic; type: in vivo, squirrel-monkeys; conditions: Primates; squirrel-monkey; read-out: ED50 in the SIDSM protocol
Method: as §1, §2, §3

[3] = Mouse Activity and Screen Test Procedure (MAST): inhibition of spontaneous locomotion; type: in vivo, Swiss-Webster male mice; conditions: IP, 1 h, read-out: Inhibition of motor activity
Excerpt: The compounds of the invention are new chemical substances which are useful as pharmaceutical agents for the treatment of psychoses. The antipsychotic activity of representative compounds of the invention was established by the Mouse Activity and Screen Test Procedure (MAST) described below. Animals Nine unfasted Swiss-Webster male mice weighing 20-30 g are equally divided into three groups for each drug dose to be tested. That is, data for each dose level was generated by three separate groups of three mice each. Drugs A minimum of three dose levels (10, 30, and 100 mg/kg) are tested for each drug. Treatments are administered intraperitoneally one hour prior to testing. All dosages are calculated as parent compound and given in volumes of 10 ml/kg. Compounds are dissolved or suspended in 0.2% Methocel. Control animals are injected with Methocel. Testing A two part testing procedure is started one hour postinjection. First, the screen test (ST) is performed (see Pharmac. Biochem. Behav. 6, 351-353, 1977). Briefly this test consists of placing mice on individual wire screens which are then rotated 180 degrees at the start of a 60 second observation period. The number of mice falling off the inverted screen is recorded. Immediately following the screen test, the final phase of testing is initiated by placing each group of three mice in one actophotometer (Life Sciences, 22, 1067-1076, 1978). The actophotometer consists of a cylindrical chamber whose center is occupied by another cylinder which contains the illumination for six photocells located on the perimeter of the chamber. Six light-beam interruptions equal one count. Locomotor activity is recorded by computer at ten minute intervals for 60 minutes. Data The data obtained from the screen test are expressed as percent of mice falling off the screen. Data derived from locomotor activity of drug treated mice are compared to the activity of vehicle treated animals and are expressed as percent inhibition of spontaneous locomotion. All percentages reported for inhibition of locomotion (LI) are based upon data accumulated for one hour. Both phases of testing are graded: A=60-100%; C=31-59%; and N=0-30%. An overall dose rating is obtained by the following criteria: […]

Structure (SMILES)	ED50 [1] [mg/kg]	ED50 [2] [mg/kg]	inhibition in vivo at 0.3 mg/kg [3] [%]	inhibition in vivo at 1 mg/kg [3] [%]	inhibition in vivo at 3 mg/kg [3] [%]	inhibition in vivo at 10 mg/kg [3] [%]	inhibition in vivo at 30 mg/kg [3] [%]	inhibition in vivo at 100 mg/kg ([3]; 100 mg/kg) [%]	inhibition in vivo at 0.03 mg/kg ([3]; 0.03 mg/kg) [%]	inhibition in vivo at 0.1 mg/kg ([3]; 0.1 mg/kg) [%]
OC[C@H]1O[C@@H](n2cnc3c(NCC4(c5ccccc5)CC4)ncnc32)[C@H](O)[C@@H]1O [Example 1, N6-((1-Phenylcyclopropyl)methyl)adenosine]	0.55	0.52	43	48	38	92	98	100		
OC[C@H]1O[C@@H](n2cnc3c(NCC4(c5cccc(Cl)c5)CC4)ncnc32)[C@H](O)[C@@H]1O [Example 2, N6-((1-(3-Chlorophenyl)cyclopropyl)methyl)adenosine]					19	69	90			
OC[C@H]1O[C@@H](n2cnc3c(NCC4(c5cccs5)CC4)ncnc32)[C@H](O)[C@@H]1O [Example 3, N6-((1-Thien-2-ylcyclopropyl)methyl)adenosine]			70	85	89	93			17	40
O[C@@H]1[C@H](O)[C@@H](CCl)O[C@H]1n1cnc2c(NCC3(c4ccccc4)CC3)ncnc21 [Example 5, 5'-Deoxy-5'-chloro-N6-((1-phenylcyclopropyl)methyl)adenosine]					16	10	-4			
O[C@@H]1[C@H](O)[C@@H](CCl)O[C@H]1n1cnc2c(NCC3(c4cccs4)CC3)ncnc21 [Example 6, 5'-Chloro-5'-deoxy-N6-((1-thien-2-ylcyclopropyl)methyl)adenosine]					11	16	51			
OC[C@H]1O[C@@H](n2cnc3c(NCC4(c5ccccc5)CCC4)ncnc32)[C@H](O)[C@@H]1O [Example 7, N6-((1-Phenylcyclobutyl)methyl)adenosine]				5	21	82				
OC[C@H]1O[C@@H](n2cnc3c(NCC4(c5cccc(Cl)c5)CCC4)ncnc32)[C@H](O)[C@@H]1O [Example 8, N6-((1-(3-Chlorophenyl)cyclobutyl)methyl)adenosine]					22	35	73			
OC[C@H]1O[C@@H](n2cnc3c(NCC4(c5cccs5)CCC4)ncnc32)[C@H](O)[C@@H]1O [Example 9, N6-((1-Thien-2-ylcyclobutyl)methyl)adenosine]					43	86	94			
OC[C@H]1O[C@@H](n2cnc3c(NCC4(c5ccccc5)CCCC4)ncnc32)[C@H](O)[C@@H]1O [Example 10, N6-((1-Phenylcyclopentyl)methyl)adenosine]					-7	12	49			
OC[C@H]1O[C@@H](n2cnc3c(NCC4(c5ccccc5)CCCCC4)ncnc32)[C@H](O)[C@@H]1O [Example 11, N6-((1-Phenylcyclohexyl)methyl)adenosine]					15	-10	34			
OC[C@H]1O[C@@H](n2cnc3c(NCC4(c5ccc(Cl)cc5)CC4)ncnc32)[C@H](O)[C@@H]1O [Example 12, N6-((1-(4-Chlorophenyl)cyclopropyl)methyl)adenosine]					-4	5	20			
